# Reference: paper PMC4907692, “Engineering vanilloid-sensitivity into the rat TRPV2 channel” (eLife, 2016)
# Tests used:
# [1] = biological target: T1, TRPV1 QM (S512F, M547L, T550L, E570Q) (Rattus norvegicus, UniProt O35433, E570Q/M547L/S512F/T550L); test: Two-electrode voltage-clamp in Xenopus oocytes, TRPV1 QM; assay type: cell-based; settings: 2 mM 2-APB
# T1 construct: expressed in transfected cells; host or cells: Xenopus oocytes (cRNA injection)
# Source text: (§1) To further investigate the putative vanilloid binding pocket in TRPV1, we inspected the cryo-EM structure of TRPV1, looking for residues that are located nearby to the putative RTx density (Figure 1B; regions/residues highlighted in yellow) and that differ between TRPV1 and TRPV2 channels (Figure 3—figure supplement 1; regions highlighted in magenta). […] To quantify the contribution of each of these residues to TRPV1 channel activation by RTx under our experimental conditions, we mutated each to the corresponding residue in TRPV2. We then expressed each construct in oocytes and used the two electrode voltage-clamp technique to study activation by RTx and by the non-specific TRPV channel activator 2-APB. We recorded time courses for channel activation by each agonist while stepping the membrane potential from −60 to +60 mV every 3 s from a holding potential of 0 mV using an external recording solution containing 100 mM KCl (internal K^+ concentration in a healthy oocyte is 100 mM) (Figure 3A, left). We also recorded current-voltage (I-V) relations by stepping over a wider range of voltages in the absence and presence of activators, or in the presence of ruthenium red (RR), a non-specific inhibitor of TRP channels (Figure 3A, right). […]
# WT TRPV2 = biological target: T2, WT TRPV2 (Rattus norvegicus, UniProt Q9WUD2); test: Two-electrode voltage-clamp in Xenopus oocytes, WT TRPV2; assay type: cell-based; settings: 4 mM 2-APB
# T2 construct: expressed in transfected cells; host or cells: Xenopus oocytes (cRNA injection, pGEM-HE)
# T2 sequence (Q9WUD2 whole entry): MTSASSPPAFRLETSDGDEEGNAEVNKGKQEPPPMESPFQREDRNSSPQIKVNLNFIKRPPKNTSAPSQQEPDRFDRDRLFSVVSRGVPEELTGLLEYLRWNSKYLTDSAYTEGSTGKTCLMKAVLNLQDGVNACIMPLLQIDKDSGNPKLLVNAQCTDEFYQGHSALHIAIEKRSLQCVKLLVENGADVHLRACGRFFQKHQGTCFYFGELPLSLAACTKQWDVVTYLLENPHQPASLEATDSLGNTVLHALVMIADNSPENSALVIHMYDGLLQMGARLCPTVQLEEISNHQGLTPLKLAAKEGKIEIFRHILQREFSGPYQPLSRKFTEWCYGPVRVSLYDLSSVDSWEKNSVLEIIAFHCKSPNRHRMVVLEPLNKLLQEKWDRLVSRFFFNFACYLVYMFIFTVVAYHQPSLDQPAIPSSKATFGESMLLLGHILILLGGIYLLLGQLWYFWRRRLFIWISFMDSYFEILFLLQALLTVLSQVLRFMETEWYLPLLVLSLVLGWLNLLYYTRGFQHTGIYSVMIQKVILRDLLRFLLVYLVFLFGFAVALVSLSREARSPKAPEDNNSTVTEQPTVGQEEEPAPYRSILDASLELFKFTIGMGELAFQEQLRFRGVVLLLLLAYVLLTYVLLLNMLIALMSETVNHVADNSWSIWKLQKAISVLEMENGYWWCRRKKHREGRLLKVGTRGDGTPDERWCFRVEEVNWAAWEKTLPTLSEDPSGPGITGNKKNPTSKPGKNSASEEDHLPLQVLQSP
# Source text: as §1
# WT TRPV1 = biological target: T3, WT TRPV1 (Rattus norvegicus, UniProt O35433); test: Two-electrode voltage-clamp in Xenopus oocytes, WT TRPV1; assay type: cell-based
# T3 construct: expressed in transfected cells; host or cells: Xenopus oocytes (cRNA injection, pGEM-HE)
# T3 sequence (O35433 whole entry): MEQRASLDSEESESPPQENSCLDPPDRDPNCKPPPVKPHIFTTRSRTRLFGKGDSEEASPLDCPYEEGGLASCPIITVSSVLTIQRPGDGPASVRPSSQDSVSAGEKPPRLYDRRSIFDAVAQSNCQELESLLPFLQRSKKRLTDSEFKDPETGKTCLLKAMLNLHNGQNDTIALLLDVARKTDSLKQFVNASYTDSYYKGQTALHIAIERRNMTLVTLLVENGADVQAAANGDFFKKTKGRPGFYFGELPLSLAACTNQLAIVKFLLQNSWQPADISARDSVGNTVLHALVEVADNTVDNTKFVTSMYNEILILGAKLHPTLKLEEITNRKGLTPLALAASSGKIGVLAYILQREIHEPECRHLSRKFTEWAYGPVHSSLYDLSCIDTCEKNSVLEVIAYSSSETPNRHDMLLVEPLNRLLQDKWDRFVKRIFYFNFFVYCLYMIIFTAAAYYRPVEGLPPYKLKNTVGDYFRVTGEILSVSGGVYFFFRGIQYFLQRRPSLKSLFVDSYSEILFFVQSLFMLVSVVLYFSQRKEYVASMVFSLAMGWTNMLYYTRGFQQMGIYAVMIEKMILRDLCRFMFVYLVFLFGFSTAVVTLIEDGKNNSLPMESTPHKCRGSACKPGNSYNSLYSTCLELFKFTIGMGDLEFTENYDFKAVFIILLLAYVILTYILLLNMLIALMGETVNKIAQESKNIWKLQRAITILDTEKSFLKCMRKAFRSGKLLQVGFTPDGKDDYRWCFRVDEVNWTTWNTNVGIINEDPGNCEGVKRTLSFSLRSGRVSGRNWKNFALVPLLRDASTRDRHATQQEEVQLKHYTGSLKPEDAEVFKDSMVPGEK
# Source text: To further investigate the putative vanilloid binding pocket in TRPV1, we inspected the cryo-EM structure of TRPV1, looking for residues that are located nearby to the putative RTx density (Figure 1B; regions/residues highlighted in yellow) and that differ between TRPV1 and TRPV2 channels (Figure 3—figure supplement 1; regions highlighted in magenta). […] To quantify the contribution of each of these residues to TRPV1 channel activation by RTx under our experimental conditions, we mutated each to the corresponding residue in TRPV2. We then expressed each construct in oocytes and used the two electrode voltage-clamp technique to study activation by RTx and by the non-specific TRPV channel activator 2-APB. We recorded time courses for channel activation by each agonist while stepping the membrane potential from −60 to +60 mV every 3 s from a holding potential of 0 mV using an external recording solution containing 100 mM KCl (internal K^+ concentration in a healthy oocyte is 100 mM) (Figure 3A, left). We also recorded current-voltage (I-V) relations by stepping over a wider range of voltages in the absence and presence of activators, or in the presence of ruthenium red (RR), a non-specific inhibitor of TRP channels (Figure 3A, right).
# The WT rat TRPV1 and TRPV2 channels in the pcDNA3.1 vector were kindly provided by Dr. David Julius (UCSF) ([Caterina et al., 1997]; [Caterina et al., 1999]) and subcloned into the pGEM-HE vector ([Liman et al., 1992]). Mutations were introduced into rTRPV1 using a two-step PCR mutagenesis technique and the resulting constructs were verified by sequencing. All channel constructs were expressed in Xenopus oocytes and studied following 1–4 days incubation after cRNA injection (incubated at 17°C in 96 mM NaCl, 2 mM KCl, 5 mM HEPES, 1 mM MgCl2 and 1.8 mM CaCl2, 50 μg/ml gentamycin, pH 7.6 with NaOH) using the two-electrode voltage-clamp recording technique (OC-725C, Warner Instruments, Hamden, CT) with a 150 μl recording chamber. Data were filtered at 1–3 kHz and digitized at 20 kHz using pClamp software (Molecular Devices, Sunnyvale, CA). […]
# TRPV2 QM = biological target: T4, TRPV2 QM (Rattus norvegicus, UniProt Q9WUD2, F472S/L507M/L510T/Q530E); test: Two-electrode voltage-clamp in Xenopus oocytes, TRPV2 QM; assay type: cell-based; settings: 50 µM capsaicin
# T4 construct: expressed in transfected cells; host or cells: Xenopus oocytes (cRNA injection)
# T4 sequence (Q9WUD2 1-761 F472S/L507M/L510T/Q530E): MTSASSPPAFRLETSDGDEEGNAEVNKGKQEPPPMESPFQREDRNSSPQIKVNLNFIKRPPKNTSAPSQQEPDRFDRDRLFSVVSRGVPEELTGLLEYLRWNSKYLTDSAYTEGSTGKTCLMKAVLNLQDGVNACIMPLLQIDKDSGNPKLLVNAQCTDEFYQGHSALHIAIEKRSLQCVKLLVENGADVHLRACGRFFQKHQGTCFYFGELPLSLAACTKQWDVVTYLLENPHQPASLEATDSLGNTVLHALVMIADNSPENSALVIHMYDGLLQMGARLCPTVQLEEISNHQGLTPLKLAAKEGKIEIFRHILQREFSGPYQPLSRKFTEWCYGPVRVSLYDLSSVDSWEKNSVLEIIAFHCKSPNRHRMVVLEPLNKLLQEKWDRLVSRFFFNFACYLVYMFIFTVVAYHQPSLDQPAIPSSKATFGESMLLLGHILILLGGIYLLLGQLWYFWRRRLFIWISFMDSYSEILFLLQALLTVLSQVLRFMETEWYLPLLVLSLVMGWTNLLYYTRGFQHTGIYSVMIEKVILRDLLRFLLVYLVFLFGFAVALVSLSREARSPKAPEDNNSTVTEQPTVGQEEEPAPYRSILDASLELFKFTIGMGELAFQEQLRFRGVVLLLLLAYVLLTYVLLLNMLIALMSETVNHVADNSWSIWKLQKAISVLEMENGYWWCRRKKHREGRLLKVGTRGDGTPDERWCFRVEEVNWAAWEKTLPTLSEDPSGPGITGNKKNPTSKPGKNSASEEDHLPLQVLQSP
# Source text: as §1
# TRPV2 = test system: TRPV2; set-up: method as in Caterina et al., 1999; settings: ref Caterina et al., 1999; cited from earlier work
# [2] = test system: full-length 1D4-tagged TRPV1; test: 3H-RTx binding to S. cerevisiae membranes containing 1D4-tagged TRPV1; set-up: species or system rat; settings: membranes, RTx binding in the presence of DkTx vs control
# Source text: The polymodal activation of TRPV1 has been widely conceptualized using allosteric models wherein binding of activators (such as vanilloids, protons, DkTx or voltage) are allosterically coupled to opening of the pore ([Brauchi et al., 2004]; [Jara-Oseguera et al., 2016]; [Matta and Ahern, 2007]). The allosteric nature of these interactions has begun to be explored using electrophysiological measurements of channel function ([Jara-Oseguera et al., 2016]; [Yao et al., 2010]), but has thus far not been investigated biochemically. We therefore tested whether binding of DkTx can enhance the affinity of TRPV1 for RTx, which would be predicted by an allosteric model wherein the two activators promote opening by binding more tightly to the open state. For these experiments we used a 1D4-tagged TRPV1 construct where expression in S. cerevisiae was driven by a constitutive promoter and we performed binding assays on yeast membranes where the vanilloid would have free access to the channel protein (see Methods). Under these conditions, we measured a Kd for RTx binding to 1D4-tagged TRPV1 of 0.6 nM under control conditions, about ten fold higher affinity than what we measured in intact cells using GFP-tagged TRPV1. When we measured the concentration-dependence of RTx binding to 1D4-tagged TRPV1 in the presence of DkTx, we observed that the tarantula toxin enhanced the affinity for RTx by about 3-fold (Figure 2A). The effects of DkTx were concentration-dependent (Figure 2B) and were observed independent of whether the binding assay was performed at 37°C (our standard temperature) or at 30°C (Figure 2A).
# The full-length TRPV1 and TRPV2 channels with 1D4 affinity tags (TETSQVAPA) on their C-termini were cloned into the YEpHIS vector and expressed in the BJ5457 strain of S. cerevisiae using the strong constitutively active PMA1 promoter, as previously described ([Moiseenkova-Bell et al., 2008]). After 48 hr of expression at 30°C in YPD media, cells were harvested by centrifugation and re-suspended in PBS buffer, supplemented with complete protease inhibitor cocktail (Roche, Indianapolis, IN) and 4-amidinophenylmethanesulfonyl fluoride hydrochloride (APMSF) (Sigma-Aldrich, St. Louis, MO). Cells were broken by passing through an Avestin homogenizer at the pressure of 35 kpsi, cell lysate was cleared by centrifugation at 8,000 g for 15 min and membranes were isolated by ultracentrifugation at 190,000 g for 1 hr. Membrane pellets were re-suspended in PBS buffer supplemented with protease inhibitors and 200 mM sucrose, flash-frozen in liquid nitrogen and stored at -70°C until RTx binding measurements.
# S. cerevisiae cells overexpressing TRPV1 constructs to be used in ligand binding assays on intact cells (Figure 1E,F) were grown as for small scale expression trials. 24 hr after protein induction cells were spun down at 4000g, the supernatant was removed and the pellet resuspended in 1x PBS, normalizing OD600 to 75 for each sample, and aliquoted for storage at -80°C. ^3H-RTx binding assays on cells were performed at 37°C as previously described ([Feng et al., 2015]), but where non-specific binding of RTx was measured using cells expressing GFP alone. The binding of RTx to TRPV1 and TRPV2 in membranes (e.g. Figure 2A,B and 5C) was performed at 37°C unless otherwise stated using membranes prepared from large scale protein preparations of S. cerevisiae containing rat TRPV1 and TRPV2 with a 1D4 tag expressed using a constitutive promoter as in [Moiseenkova-Bell et al., 2008]. Data for binding of RTx to membranes was corrected for non-specific binding, determined using either excess non-radioactive ligand or heat inactivation of the protein, as previously described ([Feng et al., 2015]). The TRPV1-activating double-knot toxin (DkTx) was produced recombinantly, folded in vitro and purified as previously described ([Bae et al., 2012]). Yeast membranes were incubated with DkTx solution for 1 hr at 4°C with gentle agitation prior to undertaking RTx binding assays. […]
# T1 sequence (O35433 whole entry S512F/M547L/T550L/E570Q): as the sequence (O35433 whole entry) above, with S512F, M547L, T550L, E570Q counted along it
molecule,measurement,setting,value
"NCCOB(c1ccccc1)c1ccccc1 [2-APB, 2-aminoethoxydiphenyl borate]",channel activation by 2-APB,[1],retaining sensitivity
same,channel activation by 2-APB,WT TRPV2,could be activated
same,channel activation by 2-APB,"WT TRPV1; 2 mM 2-APB, +60 and -60 mV",reversible activation
"N.N.N.N.N.N.N.N.N.N.N.N.N.N.[Cl-].[Cl-].[Cl-].[Cl-].[Cl-].[Cl-].[O-2].[O-2].[Ru+3].[Ru+3].[Ru+4] [RR, ruthenium red]",inhibition of RTx-activated currents by RR,WT TRPV1; 50 µM RR after 100 nM RTx,blocked the RTx-activated currents
COc1cc(CNC(=O)CCCC/C=C/C(C)C)ccc1O [capsaicin],channel activation by capsaicin,TRPV2 QM,remained insensitive
same,sensitivity to capsaicin,TRPV2,insensitive to capsaicin
"double-knot toxin (protein, UniProt P0CH43 1-79, looked up) Tau-theraphotoxin-Hs1a: DCAKEGEVCSWGKKCCDLDNFYCPMEFIPHCKKYKPYVPVTTNCAKEGEVCGWGSKCCHGLDCPLAFIPYCEKYRGRND",enhancement of the affinity for RTx by DkTx,[2],about 3 fold
